From ChEMBL document CHEMBL1136318, “Synthesis and X-ray crystal structures of substituted fluorobenzene and benzoquinone inhibitors of the tissue factor VIIa complex” (Bioorg Med Chem Lett, 2003) come the findings set out here.

The target in assay [1] is Prothrombin (Homo sapiens, UniProt P00734). In words: Inhibitory activity against thrombin.
Assay [2] deals with Coagulation factor X (Homo sapiens, UniProt P00742). In words: Inhibitory activity against coagulation factor X.

A value given as a limit tells only on which side of the number the result lay.

Chain of Coagulation factor X (P00742 41-179 limits assumed): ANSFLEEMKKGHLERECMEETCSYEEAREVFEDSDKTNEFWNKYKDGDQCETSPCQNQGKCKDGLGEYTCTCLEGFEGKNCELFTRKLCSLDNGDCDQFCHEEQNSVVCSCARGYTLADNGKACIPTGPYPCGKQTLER
Chain of Coagulation factor X (P00742 235-488 limits assumed): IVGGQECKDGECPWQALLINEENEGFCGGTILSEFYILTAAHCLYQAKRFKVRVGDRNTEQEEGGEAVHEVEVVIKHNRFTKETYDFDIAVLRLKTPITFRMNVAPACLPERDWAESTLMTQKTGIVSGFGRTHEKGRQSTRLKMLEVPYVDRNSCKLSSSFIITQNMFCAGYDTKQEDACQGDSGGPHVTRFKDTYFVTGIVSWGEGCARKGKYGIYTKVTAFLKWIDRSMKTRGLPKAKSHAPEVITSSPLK

What is called IC50 is the concentration needed to halve the response being measured. `CC(C)/N=C1\C=C(O)C(c2ccccc2)=C(CC(=O)NCc2ccc(C(=N)N)cc2)C1=O`: the IC50 in assay [1] is over 30 µM. `CC(C)Nc1ccc(-c2cccc(N)c2)c(CC(=O)NCc2ccc(C(=N)N)cc2)c1F` had an IC50 in assay [2] of over 30 µM.
